In brackets after ≈: the same amount, converted by molar mass.
Tests used:
[1] = system: Mycobacterium tuberculosis; assay: Antitubercular activity against Mycobacterium tuberculosis H37Rv assessed as inhibition of bacterial growth by alamar blue assay; format: functional
[2] = system: Mycobacterium tuberculosis; assay: Antimycobacterial activity against Mycobacterium tuberculosis H37Rv incubated for 4 weeks; format: functional; conditions: 672 h
[3] = system: Mycobacterium tuberculosis; assay: Antimycobacterial activity against Mycobacterium tuberculosis H37Rv incubated for 3 weeks; format: functional; conditions: 504 h
[4] = system: Mycobacterium tuberculosis; assay: Antimycobacterial activity against Mycobacterium tuberculosis H37Rv incubated for 5 weeks; format: functional; conditions: 840 h
[5] = system: Mycobacterium tuberculosis; assay: Antimycobacterial activity against Mycobacterium tuberculosis H37Rv incubated for 2 weeks; format: functional; conditions: 336 h
[6] = system: Mycobacterium tuberculosis; assay: Antimycobacterial activity against Mycobacterium tuberculosis H37Rv infected in human THP-1 cells assessed as inhibition of bacterial growth; format: functional, organism-based
[7] = system: Mycobacterium tuberculosis; assay: Potentiation of ethionamide induced antibacterial activity against Mycobacterium tuberculosis H37Rv expressing GFP incubated for 5 days by fluorescence based analysis; format: functional, organism-based; conditions: 120 h
[8] = system: Mycobacterium tuberculosis; assay: Antimycobacterial activity against Mycobacterium tuberculosis H37Rv assessed as inhibition of bacterial growth incubated for 5 days by alamar blue assay; format: functional; conditions: 120 h, time 5 day

Structure (SMILES): O=C(NNC(=O)c1ccc([N+](=O)[O-])cc1)c1ccncc1
- MIC [1]: 25 µg/mL (≈ 87.3 µM)

Structure (SMILES): Cc1ccccc1C(=O)NNC(=O)c1ccncc1
- MIC [1]: 25 µg/mL (≈ 97.9 µM)

Structure (SMILES): O=C(NNS(=O)(=O)c1ccccc1)c1ccncc1
- MIC [1]: 50 µg/mL (≈ 180 µM)

Structure (SMILES): Cc1ccc(S(=O)(=O)NNC(=O)c2ccncc2)cc1
- MIC [1]: 25 µg/mL (≈ 85.8 µM)

Structure (SMILES): O=C(Cc1ccccc1F)NNC(=O)c1ccncc1
- MIC [1]: 6.25 µg/mL (≈ 22.9 µM)

Structure (SMILES): O=C(NNC(=O)c1ccc(Cl)c(Cl)c1)c1ccncc1
- MIC [1]: 12.5 µg/mL (≈ 40.3 µM)

Structure (SMILES): O=C(NNC(=O)c1ccc(Cl)cc1)c1ccncc1
- MIC [1]: 25 µg/mL (≈ 90.7 µM)

Structure (SMILES): O=C(NNC(=O)c1ccncc1)c1ccncc1
- MIC [1]: 12.5 µg/mL (≈ 51.6 µM)

Structure (SMILES): CCCCCCCCCCCCCCCCCC(=O)NNC(=O)c1ccncc1
- MIC [1]: 50 µg/mL (≈ 124 µM)

Structure (SMILES): COc1ccc(/C=C/C(=O)NNC(=O)c2ccncc2)cc1
- MIC [1]: 12.5 µg/mL (≈ 42 µM)

Structure (SMILES): O=C(/C=C/c1ccccc1)NNC(=O)c1ccncc1
- MIC [1]: 50 µg/mL (≈ 187 µM)

Structure (SMILES): CC(C)(C)n1cc(C(=O)O)c(=O)c2cc(F)c(-c3ccc(F)cc3F)cc21
- MIC [2]: 8 µg/mL (≈ 21.3 µM)
- MIC [3]: 8 µg/mL (≈ 21.3 µM)
- MIC [4]: 8 µg/mL (≈ 21.3 µM)
- MIC [5]: 4 µg/mL (≈ 10.7 µM)

Structure (SMILES): CC(C)(C)n1cc(C(=O)O)c(=O)c2cc(F)c(Sc3ccccc3)cc21
- MIC [2]: 16 µg/mL (≈ 43.1 µM)
- MIC [3]: 16 µg/mL (≈ 43.1 µM)
- MIC [4]: 16 µg/mL (≈ 43.1 µM)
- MIC [5]: 8 µg/mL (≈ 21.5 µM)

Structure (SMILES): COc1ccc(-c2cc3c(cc2F)c(=O)c(C(=O)O)cn3C(C)(C)C)cc1
- MIC [2]: 1 µg/mL (≈ 2.71 µM)
- MIC [3]: 1 µg/mL (≈ 2.71 µM)
- MIC [4]: 2 µg/mL (≈ 5.41 µM)
- MIC [5]: 0.5 µg/mL (≈ 1.35 µM)

Structure (SMILES): CC(C)(C)n1cc(C(=O)O)c(=O)c2cc(F)c(-c3cccnc3)cc21
- MIC [2]: 0.25 µg/mL (≈ 0.735 µM)
- MIC [3]: 0.25 µg/mL (≈ 0.735 µM)
- MIC [4]: 0.25 µg/mL (≈ 0.735 µM)
- MIC [5]: 0.25 µg/mL (≈ 0.735 µM)

Structure (SMILES): CC(C)(C)n1cc(C(=O)O)c(=O)c2cc(F)c(C#Cc3ccccc3)cc21
- MIC [2]: > 16 µg/mL
- MIC [3]: > 16 µg/mL
- MIC [4]: > 16 µg/mL
- MIC [5]: > 16 µg/mL

Structure (SMILES): CC(C)(C)n1cc(C(=O)O)c(=O)c2cc(F)c(-c3ccc(O)cc3)cc21
- MIC [2]: 0.25 µg/mL (≈ 0.704 µM)
- MIC [3]: 0.25 µg/mL (≈ 0.704 µM)
- MIC [4]: 0.25 µg/mL (≈ 0.704 µM)
- MIC [5]: 0.25 µg/mL (≈ 0.704 µM)

Structure (SMILES): O=C(CCC(F)(F)F)N1CCC(F)(c2ccnc(Cl)c2)CC1
- IC50 [6]: 10 nM
- EC50 [7]: < 150 nM

Structure (SMILES): COc1ccc(NC(=O)c2c(Nc3cccc(C)c3C)nn3c(O)cc(C)nc23)cc1
- MIC [8]: 50 µg/mL (≈ 120 µM)

Structure (SMILES): CCOc1ccc(NC(=O)c2c(Nc3ccccc3)nn3c(O)cc(C)nc23)cc1
- MIC [8]: 50 µg/mL (≈ 124 µM)

Structure (SMILES): Cc1cc(O)n2nc(Nc3ccc(F)cc3)c(C(=O)Nc3cccc(Cl)c3)c2n1
- MIC [8]: 12.5 µg/mL (≈ 30.4 µM)

Structure (SMILES): Cc1ccc(NC(=O)c2c(Nc3ccccc3)nn3c(O)cc(C)nc23)cc1
- MIC [8]: 50 µg/mL (≈ 134 µM)

Structure (SMILES): Cc1cc(O)n2nc(Nc3cccc(C)c3C)c(C(=O)Nc3cccc(Cl)c3)c2n1
- MIC [8]: 50 µg/mL (≈ 119 µM)

Structure (SMILES): Cc1ccc(Nc2nn3c(O)cc(C)nc3c2C(=O)Nc2ccc(F)cc2)c(C)c1
- MIC [8]: 50 µg/mL (≈ 123 µM)

Structure (SMILES): O=C(CCC(F)(F)F)N1CC(C2CCCCC2)C1
- IC50 [6]: 10 nM
- EC50 [7]: < 10 nM

Structure (SMILES): CC(C)(C)n1cc(C(=O)O)c(=O)c2cc(F)c(-c3ccc(Cl)cc3)cc21
- MIC [2]: 1 µg/mL (≈ 2.68 µM)
- MIC [3]: 1 µg/mL (≈ 2.68 µM)
- MIC [4]: 1 µg/mL (≈ 2.68 µM)
- MIC [5]: 1 µg/mL (≈ 2.68 µM)

Structure (SMILES): O=C(CCC(F)(F)F)N1CCC(F)(c2ccnc(F)c2)CC1
- IC50 [6]: 10 nM
- EC50 [7]: < 150 nM

Structure (SMILES): CCN1CCN(c2nn3c(O)cc(C)nc3c2C(=O)Nc2cccc(Cl)c2Cl)CC1
- MIC [8]: 50 µg/mL (≈ 111 µM)

Structure (SMILES): O=C(NNC(=O)c1cc(O)ccc1O)c1ccncc1
- MIC [1]: 50 µg/mL (≈ 183 µM)

Structure (SMILES): O=C(CCC(F)(F)F)N1CCC(F)(c2cncc(Cl)c2)CC1
- IC50 [6]: 10 nM
- EC50 [7]: < 150 nM

Structure (SMILES): COc1ccc(-c2cc3c(cc2F)c(=O)c(C(=O)O)cn3C(C)(C)C)cn1
- MIC [2]: 0.5 µg/mL (≈ 1.35 µM)
- MIC [3]: 0.25 µg/mL (≈ 0.675 µM)
- MIC [4]: 0.5 µg/mL (≈ 1.35 µM)
- MIC [5]: 0.25 µg/mL (≈ 0.675 µM)

Structure (SMILES): C=CC(=O)NNC(=O)c1ccncc1
- MIC [1]: 50 µg/mL (≈ 262 µM)

Structure (SMILES): O=C(CCC(F)(F)F)N1CC(c2cccc(Cl)c2)C1
- IC50 [6]: 10 nM
- EC50 [7]: < 10 nM

Structure (SMILES): O=C(CCC(F)(F)F)N1CCC(F)(c2cncc(C(F)(F)F)c2)CC1
- IC50 [6]: 10 nM
- EC50 [7]: < 150 nM

Structure (SMILES): CC(C)(C)CCn1cc(C(=O)O)c(=O)c2cc(F)c(-c3ccccc3)cc21
- MIC [2]: 8 µg/mL (≈ 21.8 µM)
- MIC [3]: 8 µg/mL (≈ 21.8 µM)
- MIC [4]: 8 µg/mL (≈ 21.8 µM)
- MIC [5]: 4 µg/mL (≈ 10.9 µM)

Structure (SMILES): Cc1cccc(C(=O)NNC(=O)c2ccncc2)c1
- MIC [1]: 12.5 µg/mL (≈ 49 µM)

Structure (SMILES): O=C(NNC(=O)c1ccco1)c1ccncc1
- MIC [1]: 12.5 µg/mL (≈ 54.1 µM)

Structure (SMILES): O=C(/C=C/c1ccc(Cl)cc1)NNC(=O)c1ccncc1
- MIC [1]: 12.5 µg/mL (≈ 41.4 µM)

Structure (SMILES): O=C(CCC(F)(F)F)N1CCC(F)(c2cc(C(F)(F)F)ccn2)CC1
- IC50 [6]: 10 nM
- EC50 [7]: < 150 nM

Structure (SMILES): COc1ccc(C(=O)NNC(=O)c2ccncc2)cc1OC
- MIC [1]: 50 µg/mL (≈ 166 µM)

Structure (SMILES): CC(C)(C)n1cc(C(=O)O)c(=O)c2cc(F)c(-c3ccccc3)cc21
- MIC [2]: 2 µg/mL (≈ 5.89 µM)
- MIC [3]: 2 µg/mL (≈ 5.89 µM)
- MIC [4]: 2 µg/mL (≈ 5.89 µM)
- MIC [5]: 1 µg/mL (≈ 2.95 µM)

Structure (SMILES): O=C(CCC(F)(F)F)N1CCC(c2ccnc(Cl)c2)CC1
- IC50 [6]: 10 nM
- EC50 [7]: < 150 nM

Structure (SMILES): CC(Br)C(=O)NNC(=O)c1ccncc1 (stereo unspecified)
- MIC [1]: 50 µg/mL (≈ 184 µM)
